Laboratory results published in BindingDB's records for doi:10.1021/acs.jmedchem.7b00882 (The University of Queensland, 2018).
Peptide text beside a SMILES is read from it.

How the values were obtained:
[1] = Inhibition of human serum C1s-mediated lysis of rabbit Ab-sensitized sheep erythrocytes after 60 mins
[2] = Inhibition of factor D in […]-activated rat serum assessed as decrease in human erythrocyte lysis
[3] = Inhibition of factor D in […]-activated human serum assessed as decrease in human erythrocyte lysis
[4] = Inhibition of C9 binding to C5b678 in […] activated human serum assessed as suppression of human erythrocyte lysis after 1 hr by ELISA
[5] = Inhibition of human serum C2-mediated lysis of antibody-sensitized sheep red blood cells after 30 mins by UV-Vis spectrophotometric method

N=C(N)c1cc2ccc(OC(=O)c3cccs3)cc2s1
IC50 [1]: 0.046 µM

CC(=O)Oc1ccc(Cc2ccc(OC(C)=O)c(C(=O)O)c2)cc1C(=O)O
IC50 [2]: 0.1 µM | IC50 [3]: 0.1 µM

CC(=O)Oc1ccc(-c2ccc(OC(C)=O)c(C(=O)O)c2)cc1C(=O)O
IC50 [2]: 0.1 µM | IC50 [3]: 0.1 µM

O=C(O)C1=C/C(=C\c2cc(C(c3ccc(O)c(C(=O)O)c3)c3ccc(O)c(C(=O)O)c3)cc(C(=O)O)c2O)C=CC1=O
IC50 [4]: 0.5 µM

O=C(O)C1=C/C(=C(/c2ccc(O)c(C(=O)O)c2)c2cc(Cc3cc(C(c4ccc(O)c(C(=O)O)c4)c4ccc(O)c(C(=O)O)c4)cc(C(=O)O)c3O)cc(C(=O)O)c2O)C=CC1=O
IC50 [4]: 0.5 µM

CC(=O)N[C@@H](CCCNC(=N)N)C(=O)N[C@@H](CC(C)C)C(=O)N[C@@H](CC(C)C)C(=O)N[C@@H](CC(C)C)C(=O)N[C@@H](C)C(=O)N[C@H](C=O)CCCNC(=N)N (Ac-RLLLAR-aldehyde)
IC50 [5]: 28 µM

O=C(O)C1=CC(=C(c2ccc(O)c(C(=O)O)c2)c2ccc(O)c(C(=O)O)c2)C=CC1=O [MLS002153482]
IC50 [4]: 0.5 µM
